From article PMC11261779, “Structural studies of WDR5 in complex with MBD3C WIN motif reveal a unique binding mode” (The Journal of Biological Chemistry, 2024)
No end group written: not given here.

How the values were obtained:
WDR5 [1] = biological target: T1, WDR5 (Mus musculus, UniProt P61965); assay: ITC of MBD3C peptides titrated into wild-type WDR5 (residues 24–334); conditions: MicroCal PEAQ-ITC, 20 °C, 20 mM Tris-HCl, 200 mM NaCl, pH 7.5, WDR5 WT 44.5 μM, peptide 0.5–1.0 mM, single binding site model, triplicate, N.D. = not detectable binding
T1 construct: to titrate the truncated WDR5 construct (residues 24–334); GST (N, cleaved yes); made in house; host or cells: Escherichia coli BL21 (DE3)
Excerpt: To validate their findings and determine the dissociation constant (Kd) between WDR5 and MBD3C40-51 more accurately, we performed ITC experiments using a synthetic MBD3C peptide spanning 40 to 51 to titrate the truncated WDR5 construct (residues 24–334).
The DNA fragment encoding the mouse WDR5 seven tandem WD-40 repeats (residues 24–334) was amplified via PCR from the human brain and bone marrow cDNA library and cloned into the pGEX-4T1 vector modified with an N-terminal GST tag and a TEV cleavage site (ENLYFQ/GSHM) (where ‘/’ indicates the cleavage site). All WDR5 mutants were generated using a MutanBEST kit and subsequently confirmed through DNA sequencing. The proteins were expressed in Escherichia coli BL21 (DE3) cells (Novagen) that were cultured in Luria–Bertani medium at 37 °C. The recombinant proteins were induced by 0.2 mM isopropyl β-D-1-thiogalactopyranoside (IPTG) upon reaching an optical density at 600 nm (OD600 nm) 0.8, then transferred to 16 °C and incubated for 18 h. Cells were harvested by centrifugation and resuspended in Buffer A (20 mM Tris-HCl, 500 mM NaCl, pH 8.0), supplemented with DNAaseI (10U) and protein protease inhibitor (Roche, 1 tablet dissolved in 1 ml sterile water), and then lysed by a high-pressure cell homogenizer. The cell debris was removed by centrifugation, and the supernatant was subjected to a 6-h incubation at 4 °C with glutathione Sepharose resins (GE Healthcare) The resins bound by GST-tagged proteins were resuspended in 20 ml Buffer A. Then, the GST tag was removed through digestion with ∼1 mg TEV protease (purified in-house) at 4 °C overnight. […]
(§1) ITC assays were performed on a Microcal PEAQ-ITC instrument (Malvern Panalytical) at 20 °C. Proteins were quantified by absorbance at 280 nm and diluted to 44.5 μM with Buffer D. The peptides were adjusted to 0.5 to 1.0 mM with the same buffer. […]

[2] = tested on: patient-derived mouse models; conditions: cited from earlier work
Excerpt: (§2) WDR5, a well-established core scaffolding protein found in histone methyltransferase complexes MLL1-4 and SET1A/B ([1], [2]), was initially characterized as an epigenetic histone “writer” to recognize histone H3 lysine 4 (H3K4) and is essential for H3K4 di- and tri-methylation (H3K4me2 and H3K4me3) to activate gene transcription ([1], [3], [4], [5], [6]). Moreover, the interaction between WDR5 and the H3 tail could be regulated by the methylation of H3 arginine 2 (H3R2) ([7], [8]). It is also present in the nonspecific lethal (NSL) complex of histone acetyltransferase, where it is responsible ...

WDR5 [3] = conditions: cited from earlier work
Excerpt: as §2

WDR5^D107R = biological target: T2, WDR5^D107R (Mus musculus, UniProt P61965, D107R); assay: ITC of MBD3C peptide titrated into WDR5 D107R mutant; conditions: 20 °C, 200 mM NaCl, pH 7.5, WDR5 D107R, N.D. = not detectable binding
T2 construct: the mouse WDR5 seven tandem WD-40 repeats (residues 24–334); GST (N, cleaved yes); made in house; host or cells: Escherichia coli BL21 (DE3)
Excerpt: To validate the importance of the aforementioned residues in the interactions between MBD3C and WDR5, we conducted mutations on Arg43, Arg45, and Phe47 residues within MBD3C and the corresponding residues within WDR5. […] In addition, MBD3C carrying R43K mutation weakens the interaction with WDR5 by ∼9.1-fold (Figs. 2D, S2, and Table 2). […] The Arg-Asp specific interaction was also observed in a previously determined WDR5-KANSL1 complex, thereby contributing to the high binding affinity of KANSL1 for WDR5 ([9]). […] In comparison to the wild-type MBD3C, the dissociation constants were approximately 4-fold and 6.8-fold higher when Phe47 was mutated to alanine and histidine (Figs. 2D, S2, and Table 2), respectively.
The DNA fragment encoding the mouse WDR5 seven tandem WD-40 repeats (residues 24–334) was amplified via PCR from the human brain and bone marrow cDNA library and cloned into the pGEX-4T1 vector modified with an N-terminal GST tag and a TEV cleavage site (ENLYFQ/GSHM) (where ‘/’ indicates the cleavage site). All WDR5 mutants were generated using a MutanBEST kit and subsequently confirmed through DNA sequencing. […]
as §1

Molecule	Kd (WDR5 [1])	other results
Cc1ncsc1-c1ccc([C@H](C)NC(=O)[C@@H]2C[C@@H](O)CN2C(=O)[C@@H](NC(=O)CNC(=O)c2ccc(F)c(-c3ccc(N4C[C@@H](C)N(C)[C@@H](C)C4)c(NC(=O)c4c[nH]c(=O)cc4C(F)(F)F)c3)c2)C(C)(C)C)cc1 [MS67]	–	tumor growth [2]: suppressed tumor growth; reduction of WDR5 levels in cells (WDR5 [3]): effectively reduced WDR5 levels
GAAACRVFSPQG [MBD3C^R43A, MBD3C 40–51 peptide with R43A mutation]	no binding was observed	–
GAARCRVFSPQG [MBD3C]	–	Kd (WDR5^D107R): No interaction was observed

Second part, led by results:

Kd (WDR5 [1])	Molecule	other results
no binding was observed	GAAECRVFSPQG [MBD3C^R43E, MBD3C 40–51 peptide with R43E mutation]	–
no binding was observed	GAADCRVFSPQG [MBD3C^R43D, MBD3C 40–51 peptide with R43D mutation]	–
